Laboratory results published in the supplement of paper PMC10883282.

What was measured:
Experiment in all cases: relative viability vs DMSO control (72 h) (fraction); higher = more viable cells
KHOS-240S = system: KHOS-240S
Outline: (§1)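 Relative viability is percent growth read by ATPLite and averaged over up to triplicate wells. Sarcoma cells were seeded in 384-well plates to reach 80–90% confluence and given 2.5 µl of serially diluted compound after 24 h, from source plates of 10 mM to 0.0002 mM. Incubation lasted 72 h at 37 °C, 5% CO2, with 0.1% DMSO vehicle and a 5 µM positive control, and the data were rescaled so 1 equals full and 0 equals none.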

MES-SA = system: MES-SA
Outline: as §1

RD = system: RD
Outline: as §1

SW1353 = system: SW1353
Outline: as §1

SYO-1 = system: SYO-1
Outline: as §1

C=CC(=O)Nc1cc(Nc2nccc(-c3cn(C)c4ccccc34)n2)c(OC)cc1N(C)CCN(C)C [Osimertinib]
relative viability
Settings	KHOS-240S	MES-SA	RD	SW1353	SYO-1
0.00017 µM	1.05	0.979	1.08	1.014	1.02
0.00051 µM	1.06	0.947	1.08	1.007	0.992
0.00152 µM	1.06	0.961	1.11	1.002	0.969
0.00457 µM	1.08	0.932	1.11	1	0.971
0.01372 µM	1.04	0.97	1.11	0.97	0.935
0.04115 µM	1.05	0.941	1.11	0.96	0.9
0.1235 µM	1.05	0.948	1.1	0.9	0.847
0.3704 µM	1.03	0.882	1.07	0.82	0.713
1.111 µM	0.926	0.758	1.02	0.8	0.576
3.333 µM	0.767	0.569	0.78	0.742	0.418
10 µM	0.167	0.29	0.0148	0.0174	-0.0037

CCOc1cc2ncc(C#N)c(Nc3ccc(OCc4ccccn4)c(Cl)c3)c2cc1NC(=O)/C=C/[C@H]1CCCN1C [Pyrotinib]
relative viability
Settings	KHOS-240S	MES-SA	RD	SW1353	SYO-1
5.081 pM	1.07	0.967	1.06	1.06	1.01
15.24 pM	1.08	0.957	1.08	1.05	0.951
45.72 pM	1.06	0.9512	1.11	1.03	0.958
0.000137174 µM	1.06	0.959	1.11	0.994	0.943
0.000411523 µM	1.05	0.971	1.07	1.01	0.92
0.00123457 µM	1.08	0.965	1.08	1.04	0.948
0.0037037 µM	1.07	0.948	1.14	1.02	0.858
0.0111111 µM	1.06	0.954	1.08	1.02	0.9
0.0333333 µM	1.09	0.936	1.11	0.947	0.896
0.1 µM	1.08	0.91	1.06	0.889	0.862
0.3 µM	1.05	0.863	1.07	0.791	0.89

CO[C@H]1C[C@@H]2CC[C@@H](C)[C@@](O)(O2)C(=O)C(=O)N2CCCC[C@H]2C(=O)O[C@H]([C@H](C)C[C@@H]2CC[C@@H](O)[C@H](OC)C2)CC(=O)[C@H](C)/C=C(\C)[C@@H](O)[C@@H](OC)C(=O)[C@H](C)C[C@H](C)/C=C/C=C/C=C/1C [Rapamycin]
relative viability
Settings	KHOS-240S	MES-SA	RD	SW1353	SYO-1
0.00017 µM	0.9934	0.876	0.95	0.91	0.954
0.00051 µM	0.975	0.648	0.87	0.851	0.893
0.00152 µM	0.942	0.469	0.808	0.825	0.875
0.00457 µM	0.858	0.424	0.702	0.796	0.836
0.01372 µM	0.809	0.384	0.629	0.795	0.826
0.04115 µM	0.775	0.362	0.579	0.782	0.792
0.1235 µM	0.766	0.363	0.592	0.747	0.767
0.3704 µM	0.746	0.353	0.573	0.714	0.734
1.111 µM	0.734	0.352	0.588	0.7	0.706
3.333 µM	0.7183	0.34	0.605	0.674	0.683
10 µM	0.688	0.349	0.568	0.683	0.66

CO[C@@H]1[C@H](N(C)C(=O)c2ccccc2)C[C@H]2O[C@]1(C)n1c3ccccc3c3c4c(c5c6ccccc6n2c5c31)C(=O)NC4 [Midostaurin]
relative viability
Settings	KHOS-240S	MES-SA	RD	SW1353	SYO-1
0.00017 µM	1.04	0.87	1.06	0.918	0.955
0.00051 µM	1.04	0.8799	1.06	0.927	0.946
0.00152 µM	1.03	0.889	1.07	0.9048	0.941
0.00457 µM	1.04	0.885	1.09	0.916	0.92
0.01372 µM	1.02	0.891	1.09	0.883	0.833
0.04115 µM	0.937	0.866	1.05	0.879	0.755
0.1235 µM	0.797	0.818	0.989	0.712	0.676
0.3704 µM	0.536	0.408	0.731	0.411	0.294
1.111 µM	0.256	0.251	0.46	0.272	0.0535
3.333 µM	0.143	0.139	0.415	0.229	0.0115
10 µM	0.09613	0.0904	0.42	0.218	0.00107

Cc1cccc(-c2[nH]c(CNc3ccccc3F)nc2-c2ccc3ncnn3c2)n1 [Vactosertib]
relative viability
Settings	KHOS-240S	MES-SA	RD	SW1353	SYO-1
0.00017 µM	1.02	0.892	1.07	0.904	0.9167
0.00051 µM	1.04	0.881	1.06	0.964	0.925
0.00152 µM	1.03	0.885	1.06	0.89	0.929
0.00457 µM	1.02	0.866	1.09	0.911	0.895
0.01372 µM	1.03	0.877	1.07	0.947	0.894
0.04115 µM	1	0.901	1.09	0.953	0.872
0.1235 µM	0.992	0.894	1.07	0.96	0.86
0.3704 µM	0.966	0.897	1.09	0.946	0.808
1.111 µM	0.952	0.842	1.09	0.968	0.773
3.333 µM	0.885	0.873	1.07	0.893	0.697
10 µM	0.708	0.861	1.09	0.875	0.591

FC(F)(F)c1ccc(CNc2ccc(Cc3c[nH]c4ncc(Cl)cc34)cn2)cn1 [Pexidartinib]
relative viability
Settings	KHOS-240S	MES-SA	RD	SW1353	SYO-1
0.00017 µM	1.09	0.96	1.12	1.07	1.03
0.00051 µM	1.07	0.947	1.1	1.03	1.03
0.00152 µM	1.07	0.954	1.12	0.993	0.953
0.00457 µM	1.08	0.936	1.13	1.02	0.94
0.01372 µM	1.08	0.911	1.13	0.988	0.927
0.04115 µM	1.08	0.934	1.11	1.01	0.925
0.1235 µM	1.1	0.923	1.12	1	0.868
0.3704 µM	1.06	0.883	1.15	0.975	0.8
1.111 µM	0.997	0.892	1.14	0.897	0.733
3.333 µM	1	0.872	1.15	0.896	0.701
10 µM	0.913	0.69	1.17	0.85	0.659

COc1cc2c(Oc3ccc4[nH]c(C)cc4c3F)ccnc2cc1OCC1(N)CC1 [Anlotinib]
relative viability
Settings	KHOS-240S	MES-SA	RD	SW1353	SYO-1
0.00017 µM	1.06	0.921	1.06	0.9631	0.921
0.00051 µM	1.049	0.9145	1.06	0.99	0.923
0.00152 µM	1.04	0.918	1.08	0.985	0.92
0.00457 µM	1.06	0.9154	1.07	0.99	0.884
0.01372 µM	1.05	0.947	1.06	0.95	0.856
0.04115 µM	1.04	0.949	1.09	0.976	0.817
0.1235 µM	1.03	0.924	1.07	0.9632	0.679
0.3704 µM	0.993	0.951	1.04	0.937	0.529
1.111 µM	0.892	0.841	0.946	0.88	0.46
3.333 µM	0.464	0.271	0.594	0.551	0.328
10 µM	0.122	0.115	0.217	0.254	0.115
